Source: patent publication US20160136118A1, “COMPOSITIONS AND METHODS FOR THE TREATMENT OF A COMMON COLD AND SYMPTOMS THEREOF” (3E THERAPEUTICS CORPORATION, priority 2007, published 2016)

Assays:
[1] = test system: histamine, dust allergen and grass allergen injected into patient's arm; test: Skin reaction to injected histamine, dust allergen and grass allergen after topical pretreatment of the arm (Example 13); type: in vivo, human
Description: FIG. 1 is a photograph showing the response of the patient to 6 injections. Three substances were each injected twice at two different locations, for a total of 6 injections. Each substance was injected at one location that had been pretreated with CHOLOGRAFIN® meglumine and at a second location that had not been pretreated. CHOLOGRAFIN® meglumine, which comprises 80% Iodipamide in emollient, was applied topically to part of a patient's arm. Forty five minutes after application of the CHOLOGRAFIN® meglumine, each of the three substances was injected into the two different locations on the arm, one pretreated and one that was not pretreated. The three substances were histamine, dust allergen, and grass allergen. Referring to FIG. 1, the two histamine injections went into the upper level of the arm, the two dust allergen injections went into the middle level of the arm, and the two grass allergen injections went into the lower level of the arm. FIG. 1 is a photograph showing the resulting reactions taken 2.5 hours after the injections. […] The reactions of upper, middle and lower levels of the arm on the untreated sides were rated with scores of 3+, 4+, and 4+, respectively. The reactions of the upper, middle and lower levels of the arm on the pretreated sides were rated with scores of 1+, 2+, and 2+, respectively.

[2] = test system: human patients exposed to cat allergen; test: Single-blind study, exposure to cat allergen after contrast media pretreatment (Example 11); type: in vivo; conditions: for Reactions on exposure to cat allergen: allergen diluted 1:10
Description: A single-blind study was conducted using three human patients. The patients were exposed to cat allergen at three different dilutions, 1:1,000, 1:100, and 1:10. […] Exposure to the 1:100 dilution of allergen caused a mild reaction in all of the patients. Exposure to the 1:10 dilution of allergen caused moderate reactions in all of the patients, with one patient in particular requiring some treatment for the reaction.
Patients were then pre-treated with VISIPAQUE®320 (iodixanol).
Patients were pre-treated with Iotrolan 280.
Table 1 summarizes the results and symptoms after exposure to a 1:10 dilution of cat allergen both with and without pretreatment with VISIPAQUE®320 or Iotrolan 280.

[3] = test system: human patients exposed to cat allergen; test: Single-blind study, cat allergen at three dilutions with or without pretreatment, symptoms per patient (Example 12); type: in vivo; set-up: Drip / Congestion / Itch: scale not given here; conditions: for Itch / Sneezes / Congestion / Drip: pretreatment
Description: A single-blind study was conducted using three human patients. Patients were pre-treated with VISIPAQUE®320 (Iodixanol) or not treated with contrast media. The patients were exposed to cat allergen at three different dilutions, 1:1000, 1:100, and 1:10. Patient symptoms of itch, drip, congestion, and sneeze were assessed.
Tables 2-4 show the results and symptoms after exposure to the indicated dilution of cat allergen both with and without pretreatment with VISIPAQUE®320.
In a similar study, patients were treated with Iotrolan 280 prior to exposure to 1:10, 1:100, or 1:1000 dilutions of cat allergen.

[4] = 1:10 dilution of cat allergen, pretreatment, three human patients
[5] = Patient 1, 1:10 concentration cat allergen
[6] = Patient 1, 1:100 concentration cat allergen
[7] = Patient 1, 1:1000 concentration cat allergen
[8] = Patient 2, 1:10 concentration cat allergen
[9] = Patient 2, 1:100 concentration cat allergen
[10] = Patient 2, 1:1000 concentration cat allergen
[11] = Patient 3, 1:10 concentration cat allergen
[12] = Patient 3, 1:100 concentration cat allergen
[13] = Patient 3, 1:1000 concentration cat allergen

O=C(CCCCC(=O)Nc1c(I)cc(I)c(C(=O)O)c1I)Nc1c(I)cc(I)c(C(=O)O)c1I [iodipamide, Iodipamide]
Reaction to histamine, dust allergen and grass allergen, pretreated versus untreated side [1]: decreased reaction

CN(C(=O)CC(=O)N(C)c1c(I)c(C(=O)NC(CO)C(O)CO)c(I)c(C(=O)NC(CO)C(O)CO)c1I)c1c(I)c(C(=O)NC(CO)C(O)CO)c(I)c(C(=O)NC(CO)C(O)CO)c1I (centres unmarked) [Iotrolan 280, Iotrolan]
Reaction to the cat allergen compared to the reaction without pretreatment ([2]; 1:10 dilution of cat allergen): decreased reaction | Itch [2, 4]: 0 | Sneezes [2, 4]: 2× | Reactions on exposure to cat allergen ([2]; after pretreatment): mild reactions

CC(=O)N(CC(O)CN(C(C)=O)c1c(I)c(C(=O)NCC(O)CO)c(I)c(C(=O)NCC(O)CO)c1I)c1c(I)c(C(=O)NCC(O)CO)c(I)c(C(=O)NCC(O)CO)c1I (centres unmarked) [Visipaque 320, iodixanol]
Reaction to the cat allergen compared to the reaction without pretreatment ([2]; 1:10 dilution of cat allergen): decreased reaction | Sneezes [2, 4]: 2× | Reactions on exposure to cat allergen ([2]; after pretreatment): mild reactions | Symptoms on exposure to cat allergen ([2]; cat allergen diluted 1:100, after pretreatment): not associated with any symptoms | Symptoms in response to the cat allergen compared to the reaction without pretreatment ([3]; 1:1000, 1:100, 1:10 dilutions, three human patients): decreased symptoms | Itch [3, 5]: 0 | Sneezes [3, 5]: 2× | Congestion [3, 6]: 0 | Drip [3, 6]: 0 | Itch [3, 6]: 0 | Sneezes [3, 6]: 0 × | Congestion [3, 7]: 0 | Drip [3, 7]: 0 | Itch [3, 7]: 0 | Sneezes [3, 7]: 0 × | Congestion [3, 8]: 0 | Drip [3, 8]: 0 | Itch [3, 8]: 0 | Sneezes [3, 8]: 0 × | Congestion [3, 9]: 0 | Drip [3, 9]: 0 | Itch [3, 9]: 0 | Sneezes [3, 9]: 0 × | Congestion [3, 10]: 0 | Drip [3, 10]: 0 | Itch [3, 10]: 0 | Sneezes [3, 10]: 0 × | Drip [3, 11]: 0 | Sneezes [3, 11]: 2× | Congestion [3, 12]: 0 | Drip [3, 12]: 0 | Itch [3, 12]: 0 | Sneezes [3, 12]: 0 × | Congestion [3, 13]: 0 | Itch [3, 13]: 0 | Sneezes [3, 13]: 0 ×
